Experimental findings from patent publication US12247033B2, “Triazole-substituted imidazo[1,2-a]pyrimidines as cGAS inhibitors” (GlaxoSmithKline Intellectual Property Development Limited, priority 2022, dated 2025) are described below.

One assay concerns CGAS. Description: CGAS whole blood cytokine release assay (384-well, BacMam stimulation, IP-10 by cytometric bead array). The format is cell-based. The note with it: Homo sapiens, 6 h; read-out: hWB pXC50 (converted). The protocol:
Blood collection: Blood was collected in a tube containing 10% Sodium Heparin (5 ml/45 ml blood final).
Protocol for CGAS Whole Blood Cytokine Release Assay: Compounds serial diluted at 1:3 were provided at 150 nL per well, in a 384 well polypropylene microplate (cat. 781280; Greiner Bio-One, Frickenhausen, Germany). 5 μL of PBS/20% Null BacMam was dispensed to all wells except for column 18 on a Multidrop Combi (Thermo Scientific, Waltham, MA). 5 uL of PBS was dispensed into column 18. The Bravo (Agilent, Santa Clara, CA) was used to transfer 45 uL of donor derived blood into the compound plates. The Bravo protocol mixed the blood and compound/PBS 5 times. The plates were incubated at 37° C., 5% CO2, for 6 hours. At the 6 hour mark the plates were removed and centrifuged for 10 minutes at 3000 RPM. 3 uL of supernatant was transferred from the plate to a 384 well NBS microplate (cat. 4513; Corning Life Sciences, Corning, NY). These plates were sealed with adhesive foil and stored in a −80 freezer until ready for analysis.
For cytokine detection, Human IP-10 BD cytometric bead array (CBA) beads (BD Biosciences, Franklin Lakes, NJ) were used. Capture bead solution was prepared by performing a 1:50 dilution of the IP-10 capture bead stock solution in BD diluent for serum/plasma (cat. 51-9003991 BD Biosciences, Franklin Lakes, NJ). 2 μL of this solution was added per well to the assay microplates which were then sealed with adhesive foil and incubated at room temperature for 2 h in the dark. Detection reagent was further prepared by performing a 1:50 dilution of the detection reagent stock solution. 2 μL of detection reagent was added per well and microplates were sealed with adhesive foil and incubated at room temperature in the dark for 1 h. After the 1 h incubation 3 uL of BD CBA wash buffer was added per well of the microplates. Data were acquired on an iQue Screener flow cytometer. The iQue used fluorescence detection to quantify the inhibition of IP-10 present in the sample wells. A sip time of 1 second per sample was used. The blue laser with excitation of 488 nm and emission filters 585/40 nm were used to capture the mean and median of IP-10 with the detector in logarithmic mode (FL2-H).
All data analysis was carried out in IDBS ActivityBase XE.

The next assay addresses human CGAS (157-522) (Homo sapiens, UniProt Q8N884). The experiment in a line: biochemical.

Structures can show the parent of a compound that is named as a salt.

human CGAS (157-522), sequence (Q8N884 157-522): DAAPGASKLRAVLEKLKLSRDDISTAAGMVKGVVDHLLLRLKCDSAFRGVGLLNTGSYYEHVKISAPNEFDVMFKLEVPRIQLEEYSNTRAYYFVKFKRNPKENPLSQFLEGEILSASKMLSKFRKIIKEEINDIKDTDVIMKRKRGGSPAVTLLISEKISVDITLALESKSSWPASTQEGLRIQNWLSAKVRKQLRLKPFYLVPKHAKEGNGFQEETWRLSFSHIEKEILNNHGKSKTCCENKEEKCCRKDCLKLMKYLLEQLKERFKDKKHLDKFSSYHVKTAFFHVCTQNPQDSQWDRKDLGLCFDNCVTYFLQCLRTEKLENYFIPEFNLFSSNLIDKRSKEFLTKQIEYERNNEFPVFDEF

Regarding `N#Cc1cnc2nc(-c3nc(C(F)(F)F)n[nH]3)c(-c3cnc[nH]3)n2c1` [Example 110, 3-(1H-imidazol-5-yl)-2-[3-(trifluoromethyl)-1H-1,2,4-triazol-5-yl]imidazo[1,2-a]pyrimidine-6-carbonitrile], the figures for the IC50 with CGAS and on human CGAS (157-522) were 398 nM and 50.1 nM, respectively.
For the molecule `FC(F)(F)c1n[nH]c(-c2nc3ncc(COC4CCNC4)cn3c2-c2cnc[nH]2)n1` (stereo not shown) [Example 80, 5-[3-(1H-imidazol-5-yl)-6-[(pyrrolidin-3-yloxy)methyl]imidazo[1,2-a]pyrimidin-2-yl]-3-(trifluoromethyl)-1H-1,2,4-triazole], the IC50 in the assay on CGAS was 12600 nM; on human CGAS (157-522), 3.16 nM.
Taken in the same sequence, the figures for `FC(F)(F)c1n[nH]c(-c2nc3ncc(COCCn4cccn4)cn3c2-c2c[nH]cn2)n1` [Example 146, 5-[3-(1H-imidazol-4-yl)-6-{[2-(1H-pyrazol-1-yl)ethoxy]methyl}imidazo[1,2-a]pyrimidin-2-yl]-3-(trifluoromethyl)-1H-1,2,4-triazole] were 2000 nM and 6.31 nM.
`FC(F)(F)c1n[nH]c(-c2nc3ncc(COCC(F)(F)C(F)(F)C(F)(F)F)cn3c2-c2cnc[nH]2)n1` [Example 123, 5-{6-[(2,2,3,3,4,4,4-heptafluorobutoxy)methyl]-3-(1H-imidazol-5-yl)imidazo[1,2-a]pyrimidin-2-yl}-3-(trifluoromethyl)-1H-1,2,4-triazole]: the IC50 with CGAS was 1260 nM; at human CGAS (157-522), 6.31 nM.
Taken in the same sequence, the figures for `CNCc1cnc2nc(-c3nc(C(F)(F)F)n[nH]3)c(-c3cnc[nH]3)n2c1` [Example 75, {[3-(1H-imidazol-5-yl)-2-[3-(trifluoromethyl)-1H-1,2,4-triazol-5-yl]imidazo[1,2-a]pyrimidin-6-yl]methyl}(methyl)amine] were 631 nM and 10 nM.
Consider `FC(F)COCc1cnc2nc(-c3nc(C(F)(F)F)n[nH]3)c(-c3cnc[nH]3)n2c1` [Example 101, 5-{6-[(2,2-difluoroethoxy)methyl]-3-(1H-imidazol-5-yl)imidazo[1,2-a]pyrimidin-2-yl}-3-(trifluoromethyl)-1H-1,2,4-triazole], for which the IC50 with CGAS is 126 nM.
`OCc1ccn2c(-c3cnc[nH]3)c(-c3nc(C(F)(F)F)n[nH]3)nc2n1` [Example 9, [3-(1H-imidazol-5-yl)-2-[3-(trifluoromethyl)-1H-1,2,4-triazol-5-yl]imidazo[1,2-a]pyrimidin-7-yl]methanol, 0.3 trifluoroacetic acid salt]: in the assay with CGAS, the IC50 was 100 nM.
On the same count and under the same terms, with `Cc1ccn(CCOCc2cnc3nc(-c4nc(C(F)(F)F)n[nH]4)c(-c4c[nH]cn4)n3c2)n1` [Example 148, 5-[3-(1H-imidazol-4-yl)-6-{[2-(3-methyl-1H-pyrazol-1-yl)ethoxy]methyl}imidazo[1,2-a]pyrimidin-2-yl]-3-(trifluoromethyl)-1H-1,2,4-triazole] the figure was 3980 nM.
Take `CCOCc1cn2c(-c3cnc[nH]3)c(-c3nc(C(F)(F)F)n[nH]3)nc2nc1C(F)(F)F` [Example 115, 5-[6-(ethoxymethyl)-3-(1H-imidazol-5-yl)-7-(trifluoromethyl)imidazo[1,2-a]pyrimidin-2-yl]-3-(trifluoromethyl)-1H-1,2,4-triazole]: the IC50 in the assay with CGAS is 1580 nM.
For `CC(=O)N(C)Cc1cnc2nc(-c3nc(C(F)(F)F)n[nH]3)c(-c3cnc[nH]3)n2c1` [Example 76, N-{[3-(1H-imidazol-5-yl)-2-[3-(trifluoromethyl)-1H-1,2,4-triazol-5-yl]imidazo[1,2-a]pyrimidin-6-yl]methyl}-N-methylacetamide], the IC50 in the assay with CGAS was 5010 nM.
Turning to `Fc1cnc2nc(-c3nc(Br)n[nH]3)c(-c3c[nH]cn3)n2c1` [Example 159, 3-bromo-5-[6-fluoro-3-(1H-imidazol-4-yl)imidazo[1,2-a]pyrimidin-2-yl]-1H-1,2,4-triazole], in the assay on CGAS, the IC50 is 200 nM.
